Results published in patent publication US9579319B2 (Redx Pharma PLC, priority 2013, dated 2017).

System: Hedgehog signalling pathway
Assay: Gli-reporter NIH3T3 luciferase assay (Hedgehog pathway inhibition)
Format: cell-based
Settings: NIH3T3; Gli-reporter NIH-3T3 cells, recombinant mouse sonic hedgehog, 24 hours, luminescence; read-out: Category (Hedgehog pathway inhibition activity, IC50)
Outline: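 Mouse NIH3T3 cells with Gli-responsive luciferase reporter, pre-treated 1 h with compound (top final concentration 1 μM, 0.1% DMSO) in 0.5% calf serum medium. Then stimulated with recombinant mouse sonic hedgehog for 24 h at 37° C. Luminescence read-out (OneGLO), triplicates; IC50 reported.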

SMILES | IC50 [nM]
Cn1nccc1-c1nnc(N2CCC(NS(=O)(=O)c3ccc(F)cc3C(F)(F)F)CC2)c2ccccc12 [Example 50, 4-fluoro-N-[1-[4-(2-methylpyrazol-3-yl)phthalazin-1-yl]-4-piperidyl]-2-(trifluoromethyl)benzenesulfonamide] | < 10
CN(C1CCN(c2nnc(-c3ccnn3C)c3ccccc23)CC1)S(=O)(=O)c1ccc(F)cc1C(F)(F)F [Example 48, 4-fluoro-N-methyl-N-[1-[4-(2-methylpyrazol-3-yl)phthalazin-1-yl]-4-piperidyl]-2-(trifluoromethyl)benzenesulfonamide] | < 10
CN(Cc1ccc(C#N)cc1)C1CCN(c2nnc(-c3ccnn3C)c3ccccc23)CC1 [Example 60, 4-[[methyl-[1-[4-(2-methylpyrazol-3-yl)phthalazin-1-yl]-4-piperidyl]amino]methyl]benzonitrile] | 10 to 200
CN(Cc1ccc(F)nc1F)C1CCN(c2nnc(-c3ccnn3C)c3ccccc23)CC1 [Example 27, N-[(2,6-difluoro-3-pyridyl)methyl]-N-methyl-1-[4-(2-methylpyrazol-3-yl)phthalazin-1-yl]piperidin-4-amine] | 10 to 200
CN(Cc1cccc(F)c1)C1CCN(c2nnc(-c3ccnn3C)c3ccccc23)CC1 [Example 65, (3-fluorophenyl)methyl-methyl-[1-[4-(2-methylpyrazol-3-yl)phthalazin-1-yl]-4-piperidyl]ammonium] | 10 to 200
Cn1nccc1-c1nnc(N2CCC(NCc3ccc(F)nc3F)CC2)c2ccccc12 [Example 76, N-[(2,6-difluoro-3-pyridyl)methyl]-1-[4-(2-methylpyrazol-3-yl)phthalazin-1-yl]piperidin-4-amine] | 10 to 200

Further lines, results first:

IC50 [nM] | SMILES
10 to 200 | CN(Cc1ccccc1C#N)C1CCN(c2nnc(-c3ccnn3C)c3ccccc23)CC1 [Example 33, 2-[[methyl-[1-[4-(2-methylpyrazol-3-yl)phthalazin-1-yl]-4-piperidyl]amino]methyl]benzonitrile]
200 to 2000 | COc1ccc(CNC2CCN(c3nnc(-c4ccnn4C)c4ccccc34)CC2)cc1 [Example 71, N-[(4-methoxyphenyl)methyl]-1-[4-(2-methylpyrazol-3-yl)phthalazin-1-yl]piperidin-4-amine]
10 to 200 | CN(Cc1ccccc1)C1CCN(c2nnc(-c3ccnn3C)c3ccccc23)CC1 [Example 59, N-benzyl-N-methyl-1-[4-(2-methylpyrazol-3-yl)phthalazin-1-yl]piperidin-4-amine]
10 to 200 | CCOc1ccccc1CNC1CCN(c2nnc(-c3ccnn3C)c3ccccc23)CC1 [Example 52, N-[(2-ethoxyphenyl)methyl]-1-[4-(2-methylpyrazol-3-yl)phthalazin-1-yl]piperidin-4-amine]
< 10 | COc1ccccc1NC(=O)NC1CCN(c2nnc(-c3ccnn3C)c3ccccc23)CC1 [Example 15, 1-(2-methoxyphenyl)-3-[1-[4-(2-methylpyrazol-3-yl)phthalazin-1-yl]-4-piperidyl]urea]
10 to 200 | CSc1ccccc1CNC1CCN(c2nnc(-c3ccnn3C)c3ccccc23)CC1 [Example 17, 1-[4-(2-methylpyrazol-3-yl)phthalazin-1-yl]-N-[(2-methylsulfanylphenyl)methyl]piperidin-4-amine]
< 10 | Cn1nccc1-c1nnc(N2CCC(NCc3ccccc3C(F)(F)F)CC2)c2ccccc12 [Example 40, 1-[4-(2-methylpyrazol-3-yl)phthalazin-1-yl]-N-[[2-(trifluoromethyl)phenyl]methyl]piperidin-4-amine]
200 to 2000 | COc1ccccc1CNC1CCN(c2nnc(-c3ccnn3C)c3ccccc23)CC1 [Example 69, N-[(2-methoxyphenyl)methyl]-1-[4-(2-methylpyrazol-3-yl)phthalazin-1-yl]piperidin-4-amine]

Same assay, conditions: NIH3T3; Gli-reporter NIH-3T3 cells, recombinant mouse sonic hedgehog, 24 hours, luminescence; read-out: Gli Luc nM (IC50)

IC50 [nM] | SMILES
1.79 | Cn1nccc1-c1nnc(N2CCC(NS(=O)(=O)c3ccc(F)cc3C(F)(F)F)CC2)c2ccccc12 [Example 50, 4-fluoro-N-[1-[4-(2-methylpyrazol-3-yl)phthalazin-1-yl]-4-piperidyl]-2-(trifluoromethyl)benzenesulfonamide]

Same assay, conditions: NIH3T3; Gli-reporter NIH-3T3 cells, recombinant mouse sonic hedgehog, 24 hours, luminescence; read-out: Gli luc IC50

SMILES | IC50 [nM]
Cn1nccc1-c1nnc(N2CCC(NC(=O)Nc3ccc(F)cc3F)CC2)c2c1CCC2 [Example 138, 1-(2,4-difluorophenyl)-3-[1-[1-(2-methylpyrazol-3-yl)-6,7-dihydro-5H-cyclopenta[d]pyridazin-4-yl]-4-piperidyl]urea] | 10 to 200
Cn1nccc1-c1nnc(N2CCC(NCc3ccc(F)cc3C(F)(F)F)CC2)c2c1CCC2 [Example 148, N-[[4-fluoro-2-(trifluoromethyl)phenyl]methyl]-1-[1-(2-methylpyrazol-3-yl)-6,7-dihydro-5H-cyclopenta[d]pyridazin-4-yl]piperidin-4-amine] | 10 to 200
CN(Cc1ccc(F)cc1C(F)(F)F)C1CCN(c2nnc(-c3cnccn3)c3ccccc23)CC1 [Example 153, N-[[4-fluoro-2-(trifluoromethyl)phenyl]methyl]-N-methyl-1-(4-pyrazin-2-ylphthalazin-1-yl)piperidin-4-amine] | > 200
Cn1nccc1-c1nnc(N2CCC(NS(=O)(=O)c3ccc(F)cc3F)CC2)c2c1CCC2 [Example 141, 2,4-difluoro-N-[1-[1-(2-methylpyrazol-3-yl)-6,7-dihydro-5H-cyclopenta[d]pyridazin-4-yl]-4-piperidyl]benzenesulfonamide] | 10 to 200
Cc1c(-c2ccnn2C)nnc(N2CCC(NC(=O)Nc3ccc(F)cc3C(F)(F)F)CC2)c1C [Example 100, 1-[1-[4,5-dimethyl-6-(2-methylpyrazol-3-yl)pyridazin-3-yl]-4-piperidyl]-3-[4-fluoro-2-(trifluoromethyl)phenyl]urea] | 10 to 200
CN(C(=O)Nc1ccc(F)cc1C(F)(F)F)C1CCN(c2nnc(-c3ccnn3C)c3ncccc23)CC1 [Example 80, 3-[4-fluoro-2-(trifluoromethyl)phenyl]-1-methyl-1-[1-[8-(2-methylpyrazol-3-yl)pyrido[2,3-d]pyridazin-5-yl]-4-piperidyl]urea] | < 10
CN(C(=O)Nc1ccc(F)cc1F)C1CCN(c2nnc(-c3ccnn3C)c3cccnc23)CC1 [Example 136, 3-(2,4-difluorophenyl)-1-methyl-1-[1-[5-(2-methylpyrazol-3-yl)pyrido[2,3-d]pyridazin-8-yl]-4-piperidyl]urea] | 10 to 200
Cc1c(-c2ccnn2C)nnc(N2CCC(N(C)Cc3ccccc3C(F)(F)F)CC2)c1C [Example 84, 1-[4,5-dimethyl-6-(2-methylpyrazol-3-yl)pyridazin-3-yl]-N-methyl-N-[[2-(trifluoromethyl)phenyl]methyl]piperidin-4-amine] | 10 to 200
Cc1c(-c2ccnn2C)nnc(N2CCC(N(C)Cc3ccccc3C(C)C)CC2)c1C [Example 82, 1-[4,5-dimethyl-6-(2-methylpyrazol-3-yl)pyridazin-3-yl]-N-[(2-isopropylphenyl)methyl]-N-methyl-piperidin-4-amine] | 10 to 200

The remaining lines, values ahead:

IC50 [nM] | SMILES
< 10 | Cn1nccc1-c1nnc(N2CCC(NCc3cccnc3C(F)(F)F)CC2)c2ccccc12 [Example 155, 1-[4-(2-methylpyrazol-3-yl)phthalazin-1-yl]-N-[[2-(trifluoromethyl)-3-pyridyl]methyl]piperidin-4-amine]
10 to 200 | CN(Cc1ccccc1[N+](=O)[O-])C1CCN(c2nnc(-c3ccnn3C)c3ccccc23)CC1 [Example 114, N-methyl-1-[4-(2-methylpyrazol-3-yl)phthalazin-1-yl]-N-[(2-nitrophenyl)methyl]piperidin-4-amine]
10 to 200 | Cn1nccc1-c1nnc(N2CCC(NC(=O)NC3(C(F)(F)F)CC3)CC2)c2ccccc12 [Example 109, 1-[1-[4-(2-methylpyrazol-3-yl)phthalazin-1-yl]-4-piperidyl]-3-[1-(trifluoromethyl)cyclopropyl]urea]
